Activity calls are given as the source filed them. No cut-off for these calls is given here.
Tests used:
[1] = Displacement of [3H]-flunitrazepam from rat brain GABA-A receptor benzodiazepine site after 20 mins by liquid scintillation counting
HepG2 [2] = assay: (§1) Hepatotoxicity in human HepG2 cells assessed as loss of mitochondrial membrane potential after 24 hrs by JC-1 staining based fluorescence assay; assay type: toxicity, cell-based; settings: hepg2, 24 h
[3] = target: T1, GABA-A receptor; alpha-1/beta-2/gamma-2 (Homo sapiens, UniProt P14867+P18507+P47870); assay: Positive allosteric modulation of human recombinant GABA-A receptor alpha1beta2gamma2 expressed in HEK293 cells assessed as potentiation of GABA induced chloride currents treated every 60 secs measured for 7 secs by electrophysiological method; assay type: cell-based
T1 sequence (P14867 whole entry): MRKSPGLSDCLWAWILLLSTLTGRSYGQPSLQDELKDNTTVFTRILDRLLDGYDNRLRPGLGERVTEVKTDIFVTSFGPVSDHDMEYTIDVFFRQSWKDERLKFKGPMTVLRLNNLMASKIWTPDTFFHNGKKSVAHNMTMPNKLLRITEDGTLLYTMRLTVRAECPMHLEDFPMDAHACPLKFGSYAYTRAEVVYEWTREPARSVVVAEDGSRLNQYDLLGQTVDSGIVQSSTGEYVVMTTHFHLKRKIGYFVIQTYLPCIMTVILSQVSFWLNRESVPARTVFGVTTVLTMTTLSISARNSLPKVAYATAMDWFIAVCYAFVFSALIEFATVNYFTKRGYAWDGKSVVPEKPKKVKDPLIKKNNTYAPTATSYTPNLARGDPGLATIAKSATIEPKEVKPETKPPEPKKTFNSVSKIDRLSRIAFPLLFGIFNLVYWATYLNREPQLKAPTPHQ
T1 sequence (P47870 whole entry): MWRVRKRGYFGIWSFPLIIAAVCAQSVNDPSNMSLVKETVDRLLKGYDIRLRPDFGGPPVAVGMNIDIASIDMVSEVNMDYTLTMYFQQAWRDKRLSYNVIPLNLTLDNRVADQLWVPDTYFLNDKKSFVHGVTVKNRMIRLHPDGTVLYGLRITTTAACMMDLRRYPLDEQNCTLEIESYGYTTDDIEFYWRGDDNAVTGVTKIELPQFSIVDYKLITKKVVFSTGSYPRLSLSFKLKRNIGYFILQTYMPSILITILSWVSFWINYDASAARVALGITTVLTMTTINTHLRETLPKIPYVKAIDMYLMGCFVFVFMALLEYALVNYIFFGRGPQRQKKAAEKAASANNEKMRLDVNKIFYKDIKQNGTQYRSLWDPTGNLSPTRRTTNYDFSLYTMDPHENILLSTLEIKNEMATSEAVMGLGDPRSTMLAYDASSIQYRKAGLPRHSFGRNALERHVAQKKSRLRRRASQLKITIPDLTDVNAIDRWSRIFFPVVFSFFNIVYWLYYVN
T1 sequence (P18507 whole entry): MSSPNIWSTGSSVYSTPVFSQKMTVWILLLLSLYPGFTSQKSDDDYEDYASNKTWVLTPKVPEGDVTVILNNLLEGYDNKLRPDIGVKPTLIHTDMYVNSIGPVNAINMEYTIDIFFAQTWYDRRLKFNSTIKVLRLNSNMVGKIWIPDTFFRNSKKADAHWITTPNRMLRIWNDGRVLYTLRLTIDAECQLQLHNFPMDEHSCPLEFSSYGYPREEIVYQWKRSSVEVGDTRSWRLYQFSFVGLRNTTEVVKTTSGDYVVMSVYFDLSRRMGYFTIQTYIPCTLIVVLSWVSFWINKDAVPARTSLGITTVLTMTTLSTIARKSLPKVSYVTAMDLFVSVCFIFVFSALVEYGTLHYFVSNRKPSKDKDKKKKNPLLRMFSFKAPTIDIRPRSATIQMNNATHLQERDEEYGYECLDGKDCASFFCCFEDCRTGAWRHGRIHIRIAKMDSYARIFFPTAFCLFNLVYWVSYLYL

HepG2 [4] = assay: Hepatotoxicity in human HepG2 cells assessed as cell membrane damage after 48 hrs by luminescence assay; assay type: toxicity, cell-based; settings: hepg2, 48 h
HepG2 [5] = assay: (§2) Hepatotoxicity in human HepG2 cells assessed as decrease in cell viability after 24 hrs by PrestoBlue assay; assay type: toxicity, cell-based; settings: hepg2, 24 h
HepG2 [6] = assay: (§3) Hepatotoxicity in human HepG2 cells assessed as decrease in cell viability after 48 hrs by PrestoBlue assay; assay type: toxicity, cell-based; settings: hepg2, 48 h
HepG2 [7] = assay: (§4) Hepatotoxicity in human HepG2 cells assessed as intracellular ATP level after 48 hrs by luminescence based ATP detection assay; assay type: toxicity, cell-based; settings: hepg2, 48 h
HepG2 [8] = assay: (§5) Hepatotoxicity in human HepG2 cells assessed as intracellular ATP level after 24 hrs by luminescence based ATP detection assay; assay type: toxicity, cell-based; settings: hepg2, 24 h
[9] = Metabolic stability in human liver microsomes at 20 uM preincubated for 15 mins followed by NADPH addition measured after 60 mins by UPLC-MS/MS analysis; assay type: ADME; settings: 1 h
[10] = target: T2, GABA-A receptor; alpha-1/beta-2/gamma-2 (Homo sapiens) (UniProt P14867+P47870+P18507); assay: Positive allosteric modulation of human recombinant GABA-A receptor alpha1beta2gamma2 expressed in HEK293 cells assessed as potentiation of GABA induced chloride currents at 1 uM treated every 60 secs measured for 7 secs by electrophysiological method relative to GABA; assay type: cell-based
[11] = target: T2, GABA-A receptor; alpha-1/beta-2/gamma-2 (Homo sapiens); assay: Positive allosteric modulation of human recombinant GABA-A receptor alpha1beta2gamma2 expressed in HEK293 cells assessed as potentiation of GABA induced chloride currents at 1 uM treated every 60 secs measured for 7 secs by electrophysiological method; assay type: cell-based
HepG2 [12] = assay: Hepatotoxicity in human HepG2 cells assessed as cell membrane damage after 24 hrs by luminescence assay; assay type: toxicity, cell-based; settings: hepg2, 24 h
Rattus norvegicus [13] = species: Rattus norvegicus; assay: Potency index, ratio of zolpidem Ki to compound Ki for rat brain GABA-A receptor benzodiazepine site
[14] = Drug metabolism in human liver microsomes assessed as 2-(6-fluoro-2-(4-(hydroxymethyl)phenyl)imidazo[1,2-a]pyridin-3-yl)-N,N-dimethylacetamide formation at 20 uM preincubated for 15 mins followed by NADPH addition measured after 60 mins by UPLC-MS/MS analysis; assay type: ADME; settings: 1 h
[15] = Drug level in human liver microsomes treated with 20 uM of zolpidem preincubated for 15 mins followed by NADPH addition measured after 60 mins by UPLC-MS/MS analysis; assay type: ADME; settings: 1 h
Rattus norvegicus [16] = assay: Toxicity in rat assessed as cataleptogenic effects at 1 mg/kg, ip administered 60 mins; assay type: organism-based; settings: in vivo, 1 h
Rattus norvegicus [17] = assay: Antipsychotic activity in ip dosed rat assessed as reversal of amphetamine-induced hyperlocomotion administered 30 mins before administration of amphetamine measured for 15 mins by open field test; assay type: functional
Rattus norvegicus [18] = assay: Toxicity in rat assessed as effect on behavioral changes at 1 mg/kg, ip administered 60 mins; assay type: organism-based; settings: in vivo, 1 h
Rattus norvegicus [19] = assay: Antipsychotic activity in rat assessed as reversal of amphetamine-induced hyperlocomotion at 3 mg/kg, ip treated for 30 mins prior to test followed by amphetamine administration 15 mins prior to test by open field test; assay type: functional, organism-based
Rattus norvegicus [20] = assay: Toxicity in rat assessed as decrease in spontaneous locomotor activity at 1 mg/kg, ip treated for 60 mins by open field test; assay type: organism-based; settings: in vivo, 1 h
Rattus norvegicus [21] = assay: Antipsychotic activity in rat assessed as reversal of amphetamine-induced hyperlocomotion at 3 mg/kg, ip treated for 60 mins prior to test followed by amphetamine administration 15 mins prior to test by open field test; assay type: functional, organism-based
Rattus norvegicus [22] = assay: Toxicity in rat assessed as myorelaxant effects at 1 mg/kg, ip administered 60 mins; assay type: organism-based; settings: in vivo, 1 h
[23] = as §1; assay type: toxicity, cell-based; settings: HepG2 cells
[24] = as §2; assay type: toxicity, cell-based; settings: HepG2 cells
[25] = as §3; assay type: toxicity, cell-based; settings: HepG2 cells
[26] = as §4; assay type: toxicity, cell-based; settings: HepG2 cells
[27] = as §5; assay type: toxicity, cell-based; settings: HepG2 cells
[28] = Drug level in human liver microsomes treated with 20 uM of 2-(6-fluoro-2-p-tolylimidazo[1,2-a]pyridin-3-yl)-N,N-dimethylethanamide preincubated for 15 mins followed by NADPH addition measured after 60 mins by UPLC-MS/MS analysis; assay type: ADME; settings: 1 h
[29] = Drug metabolism in human liver microsomes assessed as 2-(2-(4-(hydroxymethyl)phenyl)-6-methylimidazo[1,2-a]pyridin-3-yl)-N,N-dimethylacetamide formation at 20 uM preincubated for 15 mins followed by NADPH addition measured after 60 mins by UPLC-MS/MS analysis; assay type: ADME; settings: 1 h
[30] = Plasma elimination half life in human; assay type: ADME; settings: read-out: beta t1/2
Rattus norvegicus [31] = assay: Antipsychotic activity in rat assessed as reversal of amphetamine-induced hyperlocomotion at 1 mg/kg, ip treated for 30 mins prior to test followed by amphetamine administration 15 mins prior to test by open field test; assay type: functional, organism-based

CN(C)C(=O)Cc1c(-c2ccc(C(F)(F)F)cc2)nc2ccc(F)cn12
Ki [1]: 68 nM

CN(C)C(=O)Cc1c(-c2ccc(F)cc2F)nc2ccc(F)cn12
Ki [1]: 180 nM

CN(C)C(=O)Cc1c(-c2ccc(F)cc2)nc2ccc(F)cn12
Activity (HepG2 [2]): Non-Toxic | EC50 [3]: 408 nM | Activity (HepG2 [4]): Non-Toxic | Activity (HepG2 [5]): Non-Toxic | Activity (HepG2 [6]): Non-Toxic | Activity (HepG2 [7]): Non-Toxic | Activity (HepG2 [8]): Non-Toxic | Stability [9]: Stable | Ki [1]: 55.6 to 56 nM | fold change (FC) [10]: 1.8 | Activity [11]: Active | Activity (HepG2 [12]): Non-Toxic

Cc1ccc(-c2nc3ccc(F)cn3c2CC(=O)N(C)C)cc1
Activity (HepG2 [2]): Non-Toxic | EC50 [3]: 1270 nM | Activity (HepG2 [4]): Non-Toxic | Activity (HepG2 [5]): Non-Toxic | Activity (HepG2 [6]): Non-Toxic | Ratio Ki (Rattus norvegicus [13]): 1.8 | Activity (HepG2 [7]): Non-Toxic | Activity (HepG2 [8]): Non-Toxic | Ki [1]: 25 nM | fold change (FC) [10]: 1.5 | Activity [11]: Active | Activity (HepG2 [12]): Non-Toxic | Drug metabolism [14]: Metabolite_Detected

Cc1ccc2nc(-c3ccc(CO)cc3)c(CC(=O)N(C)C)n2c1
Drug metabolism [15]: Metabolite_Detected

Cc1ccc2nc(-c3ccc(F)cc3)c(CC(=O)N(C)C)n2c1
Activity (HepG2 [2]): Non-Toxic | Activity (Rattus norvegicus [16]): Non-Toxic | EC50 [3]: 238 nM | Activity (Rattus norvegicus [17]): Dose-dependent effect | minimal effective dose (Rattus norvegicus [17]; read-out: MED): 1 mg/kg | Activity (Rattus norvegicus [18]): Toxic | Activity (HepG2 [4]): Non-Toxic | Activity (Rattus norvegicus [19]): Active | Activity (HepG2 [5]): Non-Toxic | Activity (HepG2 [6]): Non-Toxic | Activity (HepG2 [7]): Non-Toxic | Activity (Rattus norvegicus [20]): Toxic | Activity (HepG2 [8]): Non-Toxic | Stability [9]: Stable | Ki [1]: 59.6 to 60 nM | fold change (FC) [10]: 1.9 | Activity [11]: Active | Activity (Rattus norvegicus [21]): Active | Activity (HepG2 [12]): Non-Toxic | Activity (Rattus norvegicus [22]): Non-Toxic

CN(C)C(=O)Cc1c(-c2ccc(F)cc2F)nc2ccc(C(F)(F)F)cn12
Ki [1]: 830 nM

N#CC(C#N)=NNc1cccc(Cl)c1 [CARBONYL CYANIDE M-CHLOROPHENYLHYDRAZONE]
IC50 at 24 h [23]: 36000 nM | Activity (HepG2 [4]): Non-Toxic | IC50 at 24 h [24]: 22000 nM | IC50 at 48 h [25]: 6000 nM | IC50 at 48 h [26]: 7200 nM | IC50 at 24 h [27]: 9800 nM | Activity (HepG2 [12]): Non-Toxic

CN(C)C(=O)Cc1c(-c2ccccc2)nc2ccc(F)cn12
Ki [1]: 130 nM

CN(C)C(=O)Cc1c(-c2cccc(F)c2)nc2ccc(C(F)(F)F)cn12
Ki [1]: 730 nM

Cc1ccc(-c2nc3ccc(CO)cn3c2CC(=O)N(C)C)cc1
Drug metabolism [28]: Metabolite_Detected

Cc1ccc(-c2nc3ccc(C)cn3c2CC(=O)N(C)C)cc1 [ZOLPIDEM]
Activity (HepG2 [2]): Non-Toxic | Drug metabolism [29]: Metabolite_Detected | Activity (HepG2 [4]): Non-Toxic | Activity (HepG2 [5]): Non-Toxic | Activity (HepG2 [6]): Non-Toxic | half-life [30]: ≤ 2 h | Activity (HepG2 [7]): Non-Toxic | Activity (Rattus norvegicus [31]): Active | Activity (HepG2 [8]): Non-Toxic | Stability [9]: Stable | Ki [1]: 44 nM | fold change (FC) [10]: 2.5 | Activity (HepG2 [12]): Non-Toxic

CN(C)C(=O)Cc1c(-c2ccc(F)cc2)nc2ccc(C(F)(F)F)cn12
Ki [1]: 510 nM

CN(C)C(=O)Cc1c(-c2ccc(F)c(F)c2)nc2ccc(F)cn12
Ki [1]: 57.5 to 58 nM

CN(C)C(=O)Cc1c(-c2cccc(F)c2)nc2ccc(F)cn12
Ki [1]: 140 nM

CN(C)C(=O)Cc1c(-c2ccc(C(F)(F)F)cc2)nc2ccc(C(F)(F)F)cn12
Ki [1]: 487 nM
